From patent US20050271692A1, “Topical cosmetic compositions” (Cosmeceutic Solutions Pty. Ltd., priority 2002, published 2005)

Legend:
[1] = In vitro skin tape-stripping study; type: in vitro ADME, human; conditions: o/w cream with octyl salicylate vs control cream without; 10 hours after application; 20 tape strips
Procedure: Experiments were performed using full thickness human skin, after removal of the subcutaneous layer. Each skin sample was treated with 40 mg of appropriate donor phase. Serial sampling of the skin was completed at different time points after donor application, by tape stripping (3M Corp Adhesive tape) with a pressure load of 240 g/cm^2. Each tape strip removed approximately 1 layer of stratum corneum, and in each case, 20 tape strips were performed. Tape strips were extracted with methanol: chloroform and analysed by high performance liquid chromatography (HPLC).

[2] = In vitro skin diffusion study, flow-through diffusion cells; type: in vitro ADME, human; conditions: o/w cream with 2% octyl salicylate vs control cream without, 24 hours, 32° C, receptor 20% EtOH in water, p<0:05
Procedure: In vitro diffusion experiments were performed using stainless steel flow-through diffusion cells, using human epidermis maintained at 32° C. The receptor solution consisted of 20% EtOH in Milli-Q water. Eight cells for each condition were treated with 100 mg of appropriate donor phase. Samples were collected at appropriate time points and analysed by high performance liquid chromatography (HPLC).

Structure (SMILES) | amount in the upper and middle regions of the stratum corneum (tape strips) [1] | increase of the cumulative amount across human epidermis compared with the control formulation [2] [%]
COC1=C(OC)C(=O)C(C/C=C(\C)CC/C=C(\C)CC/C=C(\C)CC/C=C(\C)CC/C=C(\C)CC/C=C(\C)CC/C=C(\C)CC/C=C(\C)CC/C=C(\C)CCC=C(C)C)=C(C)C1=O [CoQ10, Coenzyme Q10] | increase the amount | 
O=C(O)CC(O)(CC(=O)O)C(=O)O [citric acid] | increase the amount | 
O=c1c(-c2ccc(O)cc2)coc2cc(O)cc(O)c12 [genistein] |  | 39
